Earlier results, collected in patent publication US20030168224A1, “Novel phosphorous-nitrogen compounds used as fireproofing agents in theroplastic molding materials and the production thereof” (priority 2000, published 2003).

What was measured:
[1] = prior-art product
[2] = prior-art product; remark: listed apart in the source

N.O=C1NC(=O)NP(=S)(S)N1 [ammonium 4,6-dioxo-2-thiooxohexahydro-1,3,5,2-λ^5-triazaphosphorinane-2-thiolate]
decomposition temperature [1]: 230 °C | solubility in hot water [2]: highly soluble
